Results taken from US20030130216A1, “Use of inhibitors of caspase-3 or caspase-activated desoxyribonuclease(cad) for treating cardiac disease” (priority 2000, published 2003).

Tested on: healthy adult ventricular cardiac muscle cells
Experiment: Microinjection of activated caspase-3 into isolated ventricular cardiac muscle cells
Assay type: cell-based, rabbit
Details: pre-incubation of the muscle cells with inhibitor (100 μmol/l)
Description: The microinjection experiments were carried out on freshly isolated cardiac muscle cells of sham-operated rabbits by means of a “Femto-Jet” microinjection device (Eppendorf, Hamburg, Germany). FITC-conjugated dextran (6 mg/ml), alone or in combination with human recombinant active caspase-3 (4 ng/μl and 20 ng/μl) in 5 mmol/l potassium phosphate buffer (pH value 7.4; 100 mmol/l KCl) was injected into the cytoplasm of the cells in culture medium (Pi=1000 hPa, ti=0.1 sec., Pc=30 hPa) which had been supplemented with 200 μmol/l BDM (butanedione-monoxime, Sigma, Taufkirchen, Germany), 10 μmol/l verapamil and, optionally, 100 μmol/l […]. After incubation for two hours, contraction measurements or phalloidin staining were carried out. Injected cells were selected by means of FITC fluorescence.
In order to be able to study whether the activation of caspase-3 is sufficient for the induction of the worsening of sarcomere organisation, the activated enzyme was injected into the cytoplasm of healthy adult ventricular cardiac muscle cells. Positive cells (approximately 10 to 20%) were identified by means of FITC fluorescence. The morphological features of the cardiac muscle cells after microinjection of activated caspase-3 (4 ng/μl and 20 ng/μl) in comparison with control-injected cells are shown in FIGS. 9(a+b). […]

## DEVD-fmk
  caspase-3-mediated lowering of contraction: blocked
